The values that follow come from patent US11040947B2, “Substituted quinazolines as matrix metalloproteinase-9 hemopexin domain inhibitors” (The Research Foundation for The State University of New York, priority 2017, dated 2021).

Data set [1] has as its system proMMP-9/MMP-2PEX chimera. The experiment in a line: tryptophan fluorescence titration with chimera. The data set is classed as binding. As to the method: A blue shift in proMMP-9 tryptophan fluorescence was monitored to determine the binding affinity of all compounds. Binding of a test compound to MMP-9 was assayed by observing the change of tryptophan emission upon binding. Purified recombinant MMP-9 (50 nmol/L) or MMP-9/MMP-2PEX (50 nmol/L) was diluted in buffer (50 mmol/L Tris-HCl, 60 mmol/L KCl, and 0.05% Tween 20, pH 7.4) in the presence or absence of the test compound. As a control for protein stability and loss, an analogous buffer solution was added to the protein. The protein sample was excited at 280 nm and emission scans were collected from 290 to 400 nm, using slit widths of 0.3 nm on a QM 4/200SE spectrofluorimeter with double excitation and emission monochromators. Three emission scans were collected and averaged at each concentration. The Kd was determined using the Prism software package (GraphPad V5) to fit the data to Equation (Δ). λmax=(λmax^∞×[2])/(Kd+[2]) (A) in which λmax is the wavelength at which maximal fluorescence of the protein was observed.
A chimera of proMMP-9 and MMP-2 in which the MMP-9 PEX domain was replaced by that of MMP-2, (proMMP-9/MMP-2PEX) was tested for analog binding.

Data set [2] relates to HT1080 cells stably expressing GFP. The experiment in a line: chorioallantoic membrane (CAM) assay, invasion. The data set is classed as in vivo, chicken embryo. The settings on record: 100 μM stock solution (final estimated 0.5 μM), vs DMSO or 1f. As to the method: HT1080 cells stably expressing GFP were mixed with a type I collagen solution (3 mg/mL) and seeded atop the CAM to ensure the cells localized to a specific area. […] The invasion of cancer cells through the epithelium and basement membrane of the upper CAM into connecting tissue was examined by hematoxylin and eosin staining in addition to fluorescence microscopy for GFP^+ cells.

The subject of data set [3] is COS-1 cells stably expressing vector control or proMMP-9. The experiment in a line: acute cytotoxicity in COS-1 cells. It counts as cell-based. To be noted: 50 μM, 24 hours, non-statistically significant. As to the method: Compound 3c was evaluated for acute cytotoxicity. COS-1 cells stably expressing either vector control or proMMP-9 cDNA were treated with 50 μM 3c for 24 hours. As negative and positive controls, cells were treated with DMSO alone or 100 nM staurosporine (STS), an apoptosis inducer, respectively. […] A non-statistically significant 8% decrease in cell growth occurred after treatment with 50 μM of compound 3c. These experiments were repeated in endogenous MMP-9 expressing HT1080 fibrosarcoma cells, which were analyzed for chronic toxicity (cells were re-treated every three days for a total of nine days).

In the next data set the test system is HT1080 cells. The experiment in a line: cell adhesion to collagen or fibronectin coated plate. The data set is classed as cell-based, Human. To be noted: 37° C. 30 min. As to the method:
A 96-well plate was coated with a thin layer of either collagen or fibronectin (5 μg/ml in PBS) substrate before use. HT1080 cells were then seeded onto wells and incubated at 37° C. for 30 min in the presence of various inhibitors. Wells were washed and cells were fixed in 4% paraformaldehyde and stained with DAPI. Images of each 96-well were microscopically captured and counted for the number of cells still adherent to the coated surface using automated computer software.

Consider `O=C(CCCSc1nc2c(c(=O)[nH]1)CCCC2)Nc1ccc(F)cc1` [Compound 3c, N-(4-Fluorophenyl)-4-(4-oxo-3,4,5,6,7,8-hexahydroquinazolin-2-ylthio)butanamide], for which the “shift in fluorescence upon titration with chimera” value in data set [1] is recorded as “no shift in fluorescence was observed”. Further, the “invasion of CAM tissue” value in data set [2] is “reduced invasion of CAM tissue”. Further, the “decrease in cell growth” value in data set [3] is listed as 8%. Besides, the cellular adhesion result in the data set with HT1080 cells is given as “inhibited cellular adhesion”.
